The source of these data is patent publication US20190390161A1, “CULTURE MEDIUM COMPRISING OLIGOPEPTIDES” (Evonik Degussa GmbH, priority 2017, published 2019).

Marks after values point to notes of the source that are not given here. Bridge positions count the residues as written; N and C are the ends. Peptide text beside a SMILES is read from it. I, II: the chains in the order shown.

In data set [1] the test system is antibody producing Chinese Hamster Ovary (CHO) cells (Subclone DG44). The data set can be described thus: Experiment 1: cell growth (VCD) in TC-42 media, cysteine/cystine or leucine replaced by dipeptides. The following applies: for maximum cell densities (max. VCD) / Viable cell densities (VCD): TC-42 media of table 2; for cell growth performance compared with reference medium (FIG. 1): same molar amount of cysteine and cystine in the form of dipeptides. Type of data set: cell-based. More on the design: Viable cell densities (VCD) / maximum cell densities (max. VCD): unit not given here. The source says: The influence of the L-lysine dipeptides on the growth of antibody producing Chinese Hamster Ovary (CHO) cells (Subclone DG44; Life Technologies Cooperation, Carslbad, USA) in comparison to media containing either the corresponding free amino acids or the corresponding L-alanine dipeptides was investigated. For this purpose, the cells were cultivated in a TC-42 media produced by Xell AG, Bielefeld, Germany in which the amino acids provided within the experiments by dipeptides were lacking. The concentrations of these amino acids were adjusted in such a way that, taking into account a complete hydrolysis of the dipeptides into the amino acids, the concentration of all amino acids were the same in all media tested within this experiment. […] Experiment 1: Comparison of the Cell Growths Obtained with TC-42 media in which L-cysteine/L-cystine is replaced by bis-L-alanyl-L-cystine, bis-L-prolyl-L-cystine or bis-L-lysyl-L-cystine and L-leucine is replaced by […] For this experiment a TC-42 media produced by Xell AG, Bielefeld, Germany in which […]-cystine and L-leucine were deliberately left out of the initial formulation. […] [table]

Data set [2] has the same test system. The data set can be described thus: Antibody production (final antibody titer) in TC-42 media. It is filed as cell-based. The following applies: compared with cells cultured in reference media; 24 days (FIG. 4). The source says:
FIG. 4 depicts the final antibody titer with TC-42 media obtained with oligopeptides according to the invention.
(§1) The influence of the L-lysine dipeptides on the growth of antibody producing Chinese Hamster Ovary (CHO) cells (Subclone DG44; Life Technologies Cooperation, Carslbad, USA) in comparison to media containing either the corresponding free amino acids or the corresponding L-alanine dipeptides was investigated. For this purpose, the cells were cultivated in a TC-42 media produced by Xell AG, Bielefeld, Germany in which the amino acids provided within the experiments by dipeptides were lacking. The concentrations of these amino acids were adjusted in such a way that, taking into account a complete hydrolysis of the dipeptides into the amino acids, the concentration of all amino acids were the same in all media tested within this experiment.
Additionally, the effect on antibody production was analysed comparing cells cultured in reference media and cells growing in a media containing the dipeptides bis-alanyl-L-cystine or […] for 24 days (FIG. 4).

Data set [3] is described as follows: Solubility found for Lys-Xxx dipeptides. The following applies: for Solubility Lys-Xxx found: as hydrochloride or as acetate (footnotes 6, 7).
The target of the next data set is plasmin (Homo sapiens, UniProt P00747). The following applies: Chemical & Pharmaceutical Bulletin 22, 2680 (1974); cited from earlier work.
The test system of data set [4] is antibody producing Chinese Hamster Ovary (CHO) cells (Subclone DG44). As to the kind of experiment: Experiment 3: cell growth (VCD) in TC-42 media, L-valine or L-isoleucine replaced by lysyl dipeptides. It is filed as cell-based. Also noted: Viable cell densities (VCD) / maximum cell densities (max VCD): unit: 10^6 cells/ml.
Text: as §1
Starting from a preparatory culture an initial viable cell density (VCD) of 0.3·10^6 cells/ml was adjusted in shaking flasks by adding the test media. After 2-4 days a part of the cell culture was transferred into a new shaking flask and an initial viable cell density (VCD) of 0.3.10^6 cells/ml was adjusted by adding new test media. This was done two times and then the cell growth was followed by measuring the viable cell density (VCD) for up to 24 days.
Experiment 3: Comparison of the Cell Growths obtained with TC-42 media in which L-valine and L-isoleucine, respectively, are replaced by L-lysyl-L-valine and L-lysyl-L-isoleucine, respectively.
For this experiment a TC-42 media produced by Xell AG, Bielefeld, Germany in which L-lysine, L-valine and L-isoleucine were lacking was used. These amino acids and the dipeptides L-lysyl-L-valine and L-lysyl-L-isoleucine, respectively, were then added to the test media in the concentration listed in table 6.

For data set [5] the following is noted: cited from earlier work.

plasmin, sequence (P00747 581-810 limits assumed, species assumed): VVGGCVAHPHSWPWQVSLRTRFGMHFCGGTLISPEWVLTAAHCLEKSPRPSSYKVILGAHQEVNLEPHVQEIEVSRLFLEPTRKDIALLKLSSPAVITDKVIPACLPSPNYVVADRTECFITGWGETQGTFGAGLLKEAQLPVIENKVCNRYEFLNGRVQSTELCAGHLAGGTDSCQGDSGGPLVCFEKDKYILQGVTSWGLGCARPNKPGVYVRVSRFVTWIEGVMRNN
plasmin, sequence (P00747 97-580 partner limits assumed, species assumed): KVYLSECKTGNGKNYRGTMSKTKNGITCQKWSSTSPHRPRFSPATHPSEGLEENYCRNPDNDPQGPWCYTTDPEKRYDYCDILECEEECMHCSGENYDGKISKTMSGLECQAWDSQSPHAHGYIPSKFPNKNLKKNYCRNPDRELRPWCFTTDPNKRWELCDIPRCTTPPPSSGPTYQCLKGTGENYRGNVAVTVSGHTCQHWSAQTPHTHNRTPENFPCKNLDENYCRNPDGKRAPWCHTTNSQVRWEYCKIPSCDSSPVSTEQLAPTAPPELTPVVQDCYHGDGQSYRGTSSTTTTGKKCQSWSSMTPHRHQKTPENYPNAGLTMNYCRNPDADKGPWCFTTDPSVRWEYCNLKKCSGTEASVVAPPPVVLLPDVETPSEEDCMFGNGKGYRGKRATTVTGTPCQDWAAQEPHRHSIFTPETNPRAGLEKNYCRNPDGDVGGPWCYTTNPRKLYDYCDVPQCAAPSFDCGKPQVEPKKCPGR

For `NCCCC[C@H](N)C(=O)N[C@@H](CSSC[C@H](NC(=O)[C@@H](N)CCCCN)C(=O)O)C(=O)O` [Lys2-Cyss, Bis-L-lysyl-L-cystine × 4HCl] (I: H-Lys-Cys-OH / II: H-Lys-Cys-OH; disulfide I:2-II:2), the “maximum cell densities (max. VCD)” value in data set [1] was 14.16. Further, the “Viable cell densities (VCD)” value in data set [1] (Time 0.0) is 0.31; in data set [1] (Time 0.7) it was 0.39; in data set [1] (Time 2.0), 0.54; in data set [1] (Time 2.7), 0.83; in data set [1] (Time 3.6), 1.02; in data set [1] (Time 3.7), 0.39. The “Viable cell densities (VCD)” value in data set [1] (Time 4.7) was determined as 0.62; in data set [1] (Time 5.8) it was 1.18; in data set [1] (Time 6.7), 1.98; in data set [1] (Time 6.8), 0.30; in data set [1] (Time 7.8), 0.43; in data set [1] (Time 8.7) it was 0.98. Also, the “Viable cell densities (VCD)” value was found to be 1.82 in data set [1] (Time 9.7); 2.88 in data set [1] (Time 10.6); 4.75 in data set [1] (Time 11.6); 6.68 in data set [1] (Time 12.8); 9.20 in data set [1] (Time 13.6); 11.93 in data set [1] (Time 15.0). Besides, the “Viable cell densities (VCD)” value in data set [1] (Time 15.9) is recorded as 13.66; in data set [1] (Time 16.7), 13.41; in data set [1] (Time 17.8), 14.16; in data set [1] (Time 18.7) it was 14.15. Further, in data set [1], the “cell growth performance compared with reference medium (FIG. 1)” value is given as “performance comparable to bis-alanyl-L-cystine”. Besides, the “antibody production increased by” value in data set [2] is around 50%. Further, the “Solubility Lys-Xxx found” value in data set [3] is on record as >500 ^6) g/1000 g solution. Besides, in data set [3] (hydrochloride), the solubility found is reported as > 50 % (w/w).
Consider `CC(=O)O.CC(C)C[C@H](NC(=O)[C@@H](N)CCCCN)C(=O)O` [Lys-Leu, L-Lysyl-L-leucine acetat] (H-Lys-Leu-OH), for which the “maximum cell densities (max. VCD)” value in data set [1] came to 12.43. In addition, the “Viable cell densities (VCD)” value in data set [1] (Time 0.0) turned out to be 0.33; in data set [1] (Time 0.7), 0.39; in data set [1] (Time 2.0), 0.59; in data set [1] (Time 2.7) it was 0.81; in data set [1] (Time 3.6), 0.92; in data set [1] (Time 3.7) it was 0.34. In addition, the “Viable cell densities (VCD)” value was found to be 0.56 in data set [1] (Time 4.7); 0.94 in data set [1] (Time 5.8); 1.40 in data set [1] (Time 6.7); 0.30 in data set [1] (Time 6.8); 0.45 in data set [1] (Time 7.8); 0.79 in data set [1] (Time 8.7). The “Viable cell densities (VCD)” value in data set [1] (Time 9.7) was determined as 1.24; in data set [1] (Time 10.6), 1.81; in data set [1] (Time 11.6) it was 2.38; in data set [1] (Time 12.8) it was 3.12; in data set [1] (Time 13.6), 3.66; in data set [1] (Time 15.0), 4.52. The “Viable cell densities (VCD)” value in data set [1] (Time 15.9) was found to be 5.47; in data set [1] (Time 16.7) it was 6.10; in data set [1] (Time 17.8) it was 6.03; in data set [1] (Time 18.7), 7.23; in data set [1] (Time 19.9), 10.51; in data set [1] (Time 20.7) it was 12.43. Further, the entries for the “Viable cell densities (VCD)” value in data set [1] (Time 21.8) and in data set [1] (Time 22.8) were 12.15 and 11.82, respectively. The “cleavage (hydrolysis) by plasmin” value on plasmin was “none of these peptides were cleaved”. The “Solubility Lys-Xxx found” value in data set [3] is listed as >330 ^7) g/1000 g solution.
For `CC(C)[C@H](NC(=O)[C@@H](N)CCCCN)C(=O)O` [Lys-Val, L-Lysyl-L-valine] (H-Lys-Val-OH), the “maximum cell densities (max VCD)” value in data set [4] (TC-42 media of table 6) is on record as 17.25. Besides, the “Viable cell densities (VCD)” value in data set [4] (Time 0.0, TC-42 media of table 6) was 0.43; in data set [4] (Time 2.8, TC-42 media of table 6) it was 2.04; in data set [4] (Time 3.0, TC-42 media of table 6), 0.50; in data set [4] (Time 6.8, TC-42 media of table 6) it was 4.37; in data set [4] (Time 6.9, TC-42 media of table 6), 0.39; in data set [4] (Time 7.9, TC-42 media of table 6) it was 0.61. Moreover, the “Viable cell densities (VCD)” value in data set [4] (Time 8.8, TC-42 media of table 6) came to 1.15; in data set [4] (Time 9.8, TC-42 media of table 6), 2.07; in data set [4] (Time 10.8, TC-42 media of table 6), 3.35; in data set [4] (Time 11.8, TC-42 media of table 6) it was 5.79; in data set [4] (Time 12.9, TC-42 media of table 6) it was 8.34; in data set [4] (Time 13.8, TC-42 media of table 6) it was 11.08. In addition, the “Viable cell densities (VCD)” value in data set [4] (Time 14.8, TC-42 media of table 6) was determined as 15.45; in data set [4] (Time 15.9, TC-42 media of table 6), 16.84; in data set [4] (Time 16.9, TC-42 media of table 6) it was 17.25; in data set [4] (Time 17.9, TC-42 media of table 6), 16.27; in data set [4] (Time 18.8, TC-42 media of table 6), 14.62. Also, in data set [4] (equimolar amounts), the “growth curve and maximum cell density compared with reference medium (FIG. 3)” value is recorded as “almost matching those of the reference medium”. In data set [3], the “Solubility Lys-Xxx found” value is >400 ^6) g/1000 g solution.
For “Bis-L-alanyl-L-cystine [Ala2-Cyss, reference compound]”, the “maximum cell densities (max. VCD)” value in data set [1] is recorded as 15.06. In addition, the “Viable cell densities (VCD)” value came out at 0.26 in data set [1] (Time 0.0); 0.42 in data set [1] (Time 0.7); 0.47 in data set [1] (Time 2.0); 0.67 in data set [1] (Time 2.7); 0.84 in data set [1] (Time 3.6); 0.36 in data set [1] (Time 3.7). The “Viable cell densities (VCD)” value turned out to be 0.71 in data set [1] (Time 4.7); 1.52 in data set [1] (Time 5.8); 2.34 in data set [1] (Time 6.7); 0.32 in data set [1] (Time 6.8); 0.48 in data set [1] (Time 7.8); 1.06 in data set [1] (Time 8.7). Moreover, the “Viable cell densities (VCD)” value in data set [1] (Time 9.7) was 1.79; in data set [1] (Time 10.6), 3.19; in data set [1] (Time 11.6) it was 4.89; in data set [1] (Time 12.8) it was 7.65; in data set [1] (Time 13.6) it was 10.01; in data set [1] (Time 15.0) it was 11.62. For the same compound, the “Viable cell densities (VCD)” value in data set [1] (Time 15.9) is listed as 15.06; in data set [1] (Time 16.7), 14.38; in data set [1] (Time 17.8), 14.05; in data set [1] (Time 18.7), 14.28. The “cell growth performance compared with reference medium (FIG. 1)” value in data set [1] was “the cells were able to utilize the peptides for growth”. Besides, the “antibody production increased by” value in data set [2] is recorded as “at least 30%”. Besides, in data set [5] (Degussa product brochure, cystine value WO 2011/133902), the “Solubility Ala-Xxx” value is 8.7 ^2) g/1000 g solution. In data set [5] (prior art values, background), the solubility is given as 15.3 g/ltr.
In the case of Lys-Lys [reference compound], the “cleavage (hydrolysis) by plasmin” value at plasmin is recorded as “none of these peptides were cleaved”.
